Assay results published in US20240409534A1, “CRYSTAL FORM OF METHYLPYRAZOLE-SUBSTITUTED PYRIDOIMIDAZOLE COMPOUND AND PREPARATION METHOD THEREFOR” (priority 2021, published 2024).
Read-outs that look alike come from different tables or passages of the source.

Assays:
[1] = Hygroscopicity study by dynamic vapor sorption (DVS); format: physicochemical; conditions: 25° C. and 80% RH
Experimental: Instrument model: SMS Intrinsic Dynamic Vapor Sorption Analyzer
Test conditions: Taking a sample (10 to 30 mg) and placing in a DVS sample dish for testing.
Detailed DVS parameters are as follows: • Temperature: 25° C. • Equilibration: dm/dt=0.002%/min (minimum: 10 min, maximum: 180 min) RH range: 0% RH to 95% RH to 0% RH • RH gradient: 10% (90% RH to 0% RH to 90% RH) • 5% (95% RH to 90% RH and 90% RH to 95% RH)

[2] = tested on: Ba/F3-TEL-FLT4 (VEGFR3); assay: In vitro proliferation of BaF3 cell line, Ba/F3-TEL-FLT4; format: cell-based
Experimental: (§1) The mother solution was prepared into a total of 9 concentration gradients (10.0000 mM, 2.5000 mM, 0.6250 mM, 0.1563 mM, 0.0391 mM, 0.0098 mM, 0.0024 mM, 0.0006 mM and 0.0002 mM) in a 4-fold dilution and stored in a 96-well plate (Beaver, Suzhou), while the same volume of DMSO solvent was used as a negative control. • 1. Cell suspension in logarithmic growth phase was taken and inoculated in a white 96-well cell culture plate (Corning 3917, NY, USA) with a volume of 95 μL per well (2000 cells/well). • 2. Diluted medium-compound mixture was added in a volume of 5 μL per well, respectively, and the final concentration of DMSO in Ba/F3-TEL-FLT1 (VEGFR1), Ba/F3-TEL-FLT4 (VEGFR3) and Ba/F3-TEL-VEGFR2 cells was 0.1%.
(§2) • 3. The plate was incubated in a 37° C., 5% CO2 incubator for 72 h. • 4. The proliferation inhibitory activity and data analysis of the compound by CellTiter-Glo method were the same as in Experimental embodiment 1.

[3] = tested on: Ba/F3-TEL-VEGFR2; assay: In vitro proliferation of BaF3 cell line, Ba/F3-TEL-VEGFR2; format: cell-based; conditions: Ba/F3-TEL-VEGFR2, 72 h
Experimental: as §1, §2

[4] = Pharmacokinetic evaluation in SD rats, intravenous and intragastric (Experimental Embodiment 3); format: in vivo; conditions: rat, plasma; for bioavailability: intragastric administration, read-out: drug bioavailability; for Cmax: read-out: peak concentration (Cmax); for Tmax: read-out: peak time (Tmax); for Vd: read-out: apparent volume of distribution at steady state (Vdss); for half-life: read-out: elimination half-life (T1/2) (converted); for clearance: read-out: plasma clearance (Cl)
[5] = tested on: Renca subcutaneous xenograft tumor; assay: In vivo antitumor activity, Renca subcutaneous xenograft tumor model; set-up: species or system Balb/c mice
Experimental: Female Balb/c mice (6 to 8 weeks old)
Mouse renal carcinoma Renca cells (ATCC-CRL-2947) were adherent cultured in vitro under the conditions of RPMI 1640 Medium with 10% fetal bovine serum, 0.1 mM non-essential amino acids, 1 mM sodium pyruvate, 2 mM glutamine, 100 U/mL penicillin and 100 µg/mL streptomycin, and cultured in a 37° C., 5% CO2 incubator. Routine passage was performed twice a week. When the cell saturation density was 80% to 90% and the number of cells reached the required level, the cells were collected, counted, and inoculated.
0.1 mL (1×10^5) Renca cells were subcutaneously inoculated on the dorsal side of the right upper limb of each mouse, and grouping and administration were initiated when the average tumor volume reached approximately 50 to 80 mm^3.
Tumor diameters were measured twice a week with vernier calipers. […]
The antitumor efficacy of compounds was evaluated by TGI (%) or relative tumor proliferation rate T/C (%). […] Relative tumor volume (RTV) was calculated according to the results of tumor measurement, and the formula was RTV=Vt/V0, where V0 was the tumor volume measured at the time of grouping and administration (i.e. D0), Vt was the tumor volume of the corresponding mouse in one measurement, and the TRTV and CRTV data were collected on the same day. […]

[6] = po, female SD rats, single intragastric administration, 10 mg/kg
[7] = po, female SD rats, single intragastric administration, 30 mg/kg
[8] = po, female SD rats, single intragastric administration, 100 mg/kg
[9] = po, male SD rats, single intragastric administration, 10 mg/kg
[10] = po, male SD rats, single intragastric administration, 30 mg/kg
[11] = po, male SD rats, single intragastric administration, 100 mg/kg
[12] = female SD rats, single intravenous injection of 1 mg/kg
[13] = male SD rats, single intravenous injection of 1 mg/kg

## CS(=O)(=O)O.Cn1cc(-c2ccn3c(-c4cc(NS(C)(=O)=O)nc(-c5ccc(F)cc5F)c4)cnc3c2)cn1
[1]
  hygroscopic weight gain ΔW: 1.708%
[2]; 72 h
  Maximum inhibition: 100%
  Minimum inhibition: −2.54%
[2]; Mus musculus, BaF3, 72 h, read-out: Relative IC50
  IC50: 395 nM
[3]
  Maximum inhibition: 99.99%
  Minimum inhibition: 8.23%
[3]; Mus musculus, BaF3, read-out: Relative IC50
  IC50: ~9.7 nM
[4]; po, female SD rats, 10 mg/kg
  bioavailability: 50.3%
[4]; [6]
  AUC(0-t): 24.8 µM·h
  Cmax: 9.17 µM
  Tmax: 40 min
[4]; [7]
  AUC(0-t): 65.6 µM·h
  Cmax: 24.5 µM
  Tmax: 60 min
[4]; [8]
  AUC(0-t): 125 µM·h
  Cmax: 27.4 µM
  Tmax: 30 min
[4]; po, male SD rats, 10 mg/kg
  bioavailability: 18%
[4]; [9]
  AUC(0-t): 7.15 µM·h
  Cmax: 3.78 µM
  Tmax: 30 min
[4]; [10]
  AUC(0-t): 38.2 µM·h
  Cmax: 16.7 µM
  Tmax: 60 min
[4]; [11]
  AUC(0-t): 113 µM·h
  Cmax: 19.9 µM
  Tmax: 50 min
[4]; [12]
  AUC(0-t): 4.93 µM·h
  Vd: 0.366 L/kg
  half-life: 45.9 min
  clearance: 7.03 mL/min/kg
[4]; [13]
  AUC(0-t): 3.98 µM·h
  Vd: 0.419 L/kg
  half-life: 40.5 min
  clearance: 8.78 mL/min/kg
[5]; Renca model, 100 mg/kg, p=0.031
  effect on tumor growth versus solvent control group: significant inhibitory effect on tumor growth
[5]; Renca xenograft tumor model, 100 mg/kg QD, female Balb/c mice
  TGI % (last administration on day 19): 72%
